Measurements: patent US10231453B2, “5-substituted imidazole derivatives” (BAYER CROPSCIENCE AKTIENGESELLSCHAFT, priority 2015, dated 2019)

How the values were obtained:
Puccinia recondita = test: In vivo preventive test on Puccinia recondita (brown rust on wheat), Examples C and R3; conditions: Puccinia recondita, 264 h, Example R3, wheat, preventive spray, evaluated 11 days after inoculation, read-out: Efficacy in %
Septoria tritici = test: In vivo preventive test on Septoria tritici (leaf spot on wheat), Examples E, Q3 and R5; conditions: Zymoseptoria tritici, 576 h, Example R5, wheat, preventive spray, evaluated 24 days after inoculation, read-out: Efficacy in %
Sphaerotheca fuliginea = test: In vivo preventive test on Sphaerotheca fuliginea (powdery mildew on cucurbits), Examples F and R6; conditions: Podosphaera fuliginea, 360 h, Example R6, gherkin, preventive spray, evaluated 15 days after inoculation, read-out: Efficacy in %
Uromyces appendiculatus = test: In vivo preventive test on Uromyces appendiculatus (bean rust), Examples G and R7; conditions: 264 h, Example R7, bean, preventive spray, evaluated 11 days after inoculation, read-out: Efficacy in %

`C#Cc1cn(CC(O)(Cc2ccccc2F)C2(Cl)CC2)cn1` (stereo not drawn) [drawing 93] gave a pest or weed control at 100 ppm (Puccinia recondita) of 0% and a pest or weed control at 500 ppm (Puccinia recondita) of 13%.
In the case of `OC(Cc1ccccc1F)(Cn1cnc(Cl)c1)C1(Cl)CC1` (stereo not drawn) [drawing 95], the pest or weed control at 100 ppm (Puccinia recondita) is reported as 0% and the pest or weed control at 500 ppm (Puccinia recondita) is reported as 33%.
In the case of `OC(Cc1ccccc1F)(Cn1ccnc1Cl)C1(Cl)CC1` (stereo not drawn) [drawing 96], the pest or weed control at 100 ppm (Puccinia recondita) is reported as 0% and the pest or weed control at 500 ppm (Puccinia recondita) is reported as 0%.
`N#Cc1cn(CC(O)(Cc2ccccc2F)C2(Cl)CC2)cn1` (stereo not drawn) [drawing 104] gave a pest or weed control at 100 ppm (Puccinia recondita) of 11% and a pest or weed control at 500 ppm (Puccinia recondita) of 78%.
Work on `OC(Cc1ccccc1Cl)(Cn1cnc(Br)c1)C1(Cl)CC1` (stereo not drawn) [drawing 123] yielded a pest or weed control at 100 ppm (Septoria tritici) of 75% and a pest or weed control at 500 ppm (Septoria tritici) of 83%.
Work on `Cc1cn(CC(O)(Cc2ccccc2Cl)C2(Cl)CC2)cn1` (stereo not drawn) [drawing 125] yielded a pest or weed control at 100 ppm (Septoria tritici) of 17% and a pest or weed control at 500 ppm (Septoria tritici) of 33%.
For `N#Cc1cn(CC(O)(Cc2ccccc2Cl)C2(Cl)CC2)cn1` (stereo not drawn) [drawing 127], the pest or weed control at 100 ppm (Septoria tritici) was 44% and the pest or weed control at 500 ppm (Septoria tritici) was 78%.
`C#Cc1cn(CC(O)(Cc2ccccc2F)C2(Cl)CC2)cn1` (stereo not drawn) [drawing 129] gave a pest or weed control at 100 ppm (Septoria tritici) of 63% and a pest or weed control at 500 ppm (Septoria tritici) of 63%.
Molecule `OC(Cc1ccccc1F)(Cn1cnc(Cl)c1)C1(Cl)CC1` (stereo not drawn) [drawing 131] has a pest or weed control at 100 ppm (Septoria tritici) of 0% and a pest or weed control at 500 ppm (Septoria tritici) of 93%.
`OC(Cc1ccccc1F)(Cn1ccnc1Cl)C1(Cl)CC1` (stereo not drawn) [drawing 132] gave a pest or weed control at 100 ppm (Septoria tritici) of 20% and a pest or weed control at 500 ppm (Septoria tritici) of 96%.
For `N#Cc1cn(CC(O)(Cc2ccccc2F)C2(Cl)CC2)cn1` (stereo not drawn) [drawing 140], the pest or weed control at 100 ppm (Septoria tritici) was 14% and the pest or weed control at 500 ppm (Septoria tritici) was 86%.
Molecule `OC(Cc1ccccc1Cl)(Cn1cnc(Br)c1)C1(Cl)CC1` (stereo not drawn) [drawing 142] has a pest or weed control at 100 ppm (Sphaerotheca fuliginea) of 20% and a pest or weed control at 500 ppm (Sphaerotheca fuliginea) of 30%.
`Cc1cn(CC(O)(Cc2ccccc2Cl)C2(Cl)CC2)cn1` (stereo not drawn) [drawing 144] was tested, and the pest or weed control at 100 ppm (Sphaerotheca fuliginea) was 0% and the pest or weed control at 500 ppm (Sphaerotheca fuliginea) was 30%.
In the case of `C#Cc1cn(CC(O)(Cc2ccccc2F)C2(Cl)CC2)cn1` (stereo not drawn) [drawing 146], the pest or weed control at 100 ppm (Sphaerotheca fuliginea) is reported as 0% and the pest or weed control at 500 ppm (Sphaerotheca fuliginea) is reported as 60%.
`OC(Cc1ccccc1F)(Cn1cnc(Cl)c1)C1(Cl)CC1` (stereo not drawn) [drawing 148] gave a pest or weed control at 100 ppm (Sphaerotheca fuliginea) of 60% and a pest or weed control at 500 ppm (Sphaerotheca fuliginea) of 98%.
`OC(Cc1ccccc1F)(Cn1ccnc1Cl)C1(Cl)CC1` (stereo not drawn) [drawing 149] was tested, and the pest or weed control at 100 ppm (Sphaerotheca fuliginea) was 0% and the pest or weed control at 500 ppm (Sphaerotheca fuliginea) was 78%.
With `N#Cc1cn(CC(O)(Cc2ccccc2F)C2(Cl)CC2)cn1` (stereo not drawn) [drawing 157] the pest or weed control at 100 ppm (Sphaerotheca fuliginea) was 95% and the pest or weed control at 500 ppm (Sphaerotheca fuliginea) was 95%.
Work on `OC(Cc1ccccc1Cl)(Cn1cnc(Br)c1)C1(Cl)CC1` (stereo not drawn) [drawing 159] yielded a pest or weed control at 100 ppm (Uromyces appendiculatus) of 56% and a pest or weed control at 500 ppm (Uromyces appendiculatus) of 47%.
For `Cc1cn(CC(O)(Cc2ccccc2Cl)C2(Cl)CC2)cn1` (stereo not drawn) [drawing 161], the pest or weed control at 100 ppm (Uromyces appendiculatus) was 0% and the pest or weed control at 500 ppm (Uromyces appendiculatus) was 100%.
Molecule `N#Cc1cn(CC(O)(Cc2ccccc2Cl)C2(Cl)CC2)cn1` (stereo not drawn) [drawing 163] has a pest or weed control at 100 ppm (Uromyces appendiculatus) of 25% and a pest or weed control at 500 ppm (Uromyces appendiculatus) of 50%.
With `C#Cc1cn(CC(O)(Cc2ccccc2F)C2(Cl)CC2)cn1` (stereo not drawn) [drawing 165] the pest or weed control at 100 ppm (Uromyces appendiculatus) was 0% and the pest or weed control at 500 ppm (Uromyces appendiculatus) was 0%.
`OC(Cc1ccccc1F)(Cn1cnc(Cl)c1)C1(Cl)CC1` (stereo not drawn) [drawing 167] gave a pest or weed control at 100 ppm (Uromyces appendiculatus) of 0% and a pest or weed control at 500 ppm (Uromyces appendiculatus) of 0%.
`OC(Cc1ccccc1F)(Cn1ccnc1Cl)C1(Cl)CC1` (stereo not drawn) [drawing 168] showed a pest or weed control at 100 ppm (Uromyces appendiculatus) of 0% and a pest or weed control at 500 ppm (Uromyces appendiculatus) of 0%.
For `N#Cc1cn(CC(O)(Cc2ccccc2F)C2(Cl)CC2)cn1` (stereo not drawn) [drawing 176], the pest or weed control at 100 ppm (Uromyces appendiculatus) was 25% and the pest or weed control at 500 ppm (Uromyces appendiculatus) was 56%.
